The target in test [1] is ALK tyrosine kinase receptor (Homo sapiens, UniProt Q9UM73). Kind of test: Inhibition of ALK (unknown origin) after 60 mins by TR-FRET assay.
In test [2] the target is T1, Aurora kinase A (Homo sapiens, UniProt O14965).
T1 sequence (O14965 whole entry): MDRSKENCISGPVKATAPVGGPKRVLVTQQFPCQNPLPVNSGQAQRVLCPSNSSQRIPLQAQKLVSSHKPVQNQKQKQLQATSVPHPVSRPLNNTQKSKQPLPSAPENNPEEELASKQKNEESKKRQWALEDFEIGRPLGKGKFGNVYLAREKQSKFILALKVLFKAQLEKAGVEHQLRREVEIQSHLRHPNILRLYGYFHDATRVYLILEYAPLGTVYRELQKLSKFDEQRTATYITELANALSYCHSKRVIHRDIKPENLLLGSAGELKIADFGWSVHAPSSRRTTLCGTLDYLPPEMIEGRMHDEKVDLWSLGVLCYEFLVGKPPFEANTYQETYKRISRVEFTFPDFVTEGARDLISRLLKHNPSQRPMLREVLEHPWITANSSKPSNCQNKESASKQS
In words: Inhibition of AURKA (unknown origin) after 60 mins by TR-FRET assay.

Test [3] deals with Cyclin-dependent kinase 9 (Homo sapiens, UniProt P50750). Kind of test: Inhibition of CDK9 (unknown origin) after 60 mins by TR-FRET assay.
Test [4] deals with Casein kinase I isoform alpha (Homo sapiens, UniProt P48729). Kind of test: Inhibition of CK1alpha1 (unknown origin) after 60 mins by TR-FRET assay.
Test [5] deals with Hepatocyte growth factor receptor (Homo sapiens, UniProt P08581). In words: Inhibition of c-MET (unknown origin) after 60 mins by TR-FRET assay.
The target in test [6] is Tyrosine-protein kinase Fyn (Homo sapiens, UniProt P06241). Kind of test: Inhibition of Fyn (unknown origin) after 60 mins by TR-FRET assay.
For test [7], the target named is Mitogen-activated protein kinase 8 (Homo sapiens, UniProt P45983). In words: Inhibition of JNK1 (unknown origin) after 60 mins by TR-FRET assay.
Test [8] concerns the target T2, Mitogen-activated protein kinase kinase kinase kinase 2 (Homo sapiens, UniProt Q12851).
T2 sequence (Q12851 whole entry): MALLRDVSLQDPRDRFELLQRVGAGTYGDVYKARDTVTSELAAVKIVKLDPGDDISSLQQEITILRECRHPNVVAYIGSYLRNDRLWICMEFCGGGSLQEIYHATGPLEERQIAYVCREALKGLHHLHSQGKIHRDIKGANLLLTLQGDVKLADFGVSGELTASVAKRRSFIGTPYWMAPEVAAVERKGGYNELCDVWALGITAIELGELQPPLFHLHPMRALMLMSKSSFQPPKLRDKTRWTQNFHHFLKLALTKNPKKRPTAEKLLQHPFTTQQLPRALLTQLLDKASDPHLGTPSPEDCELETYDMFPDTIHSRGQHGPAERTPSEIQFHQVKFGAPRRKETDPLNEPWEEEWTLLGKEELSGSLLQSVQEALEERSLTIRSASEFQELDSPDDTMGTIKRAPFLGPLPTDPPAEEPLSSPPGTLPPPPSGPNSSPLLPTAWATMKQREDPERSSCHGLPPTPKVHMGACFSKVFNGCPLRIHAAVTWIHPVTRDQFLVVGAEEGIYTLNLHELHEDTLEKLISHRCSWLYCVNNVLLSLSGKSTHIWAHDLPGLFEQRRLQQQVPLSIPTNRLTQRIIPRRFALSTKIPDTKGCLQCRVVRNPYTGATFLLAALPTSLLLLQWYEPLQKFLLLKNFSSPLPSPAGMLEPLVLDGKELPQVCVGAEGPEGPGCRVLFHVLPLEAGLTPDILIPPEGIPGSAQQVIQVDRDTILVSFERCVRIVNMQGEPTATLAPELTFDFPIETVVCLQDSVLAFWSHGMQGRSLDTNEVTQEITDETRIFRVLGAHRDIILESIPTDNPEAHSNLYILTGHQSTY
Kind of test: Inhibition of MAP4K2 (unknown origin) after 60 mins by TR-FRET assay.

Test [9] deals with T3, Serine/threonine-protein kinase TAO2 (Homo sapiens, UniProt Q9UL54).
T3 sequence (Q9UL54 whole entry): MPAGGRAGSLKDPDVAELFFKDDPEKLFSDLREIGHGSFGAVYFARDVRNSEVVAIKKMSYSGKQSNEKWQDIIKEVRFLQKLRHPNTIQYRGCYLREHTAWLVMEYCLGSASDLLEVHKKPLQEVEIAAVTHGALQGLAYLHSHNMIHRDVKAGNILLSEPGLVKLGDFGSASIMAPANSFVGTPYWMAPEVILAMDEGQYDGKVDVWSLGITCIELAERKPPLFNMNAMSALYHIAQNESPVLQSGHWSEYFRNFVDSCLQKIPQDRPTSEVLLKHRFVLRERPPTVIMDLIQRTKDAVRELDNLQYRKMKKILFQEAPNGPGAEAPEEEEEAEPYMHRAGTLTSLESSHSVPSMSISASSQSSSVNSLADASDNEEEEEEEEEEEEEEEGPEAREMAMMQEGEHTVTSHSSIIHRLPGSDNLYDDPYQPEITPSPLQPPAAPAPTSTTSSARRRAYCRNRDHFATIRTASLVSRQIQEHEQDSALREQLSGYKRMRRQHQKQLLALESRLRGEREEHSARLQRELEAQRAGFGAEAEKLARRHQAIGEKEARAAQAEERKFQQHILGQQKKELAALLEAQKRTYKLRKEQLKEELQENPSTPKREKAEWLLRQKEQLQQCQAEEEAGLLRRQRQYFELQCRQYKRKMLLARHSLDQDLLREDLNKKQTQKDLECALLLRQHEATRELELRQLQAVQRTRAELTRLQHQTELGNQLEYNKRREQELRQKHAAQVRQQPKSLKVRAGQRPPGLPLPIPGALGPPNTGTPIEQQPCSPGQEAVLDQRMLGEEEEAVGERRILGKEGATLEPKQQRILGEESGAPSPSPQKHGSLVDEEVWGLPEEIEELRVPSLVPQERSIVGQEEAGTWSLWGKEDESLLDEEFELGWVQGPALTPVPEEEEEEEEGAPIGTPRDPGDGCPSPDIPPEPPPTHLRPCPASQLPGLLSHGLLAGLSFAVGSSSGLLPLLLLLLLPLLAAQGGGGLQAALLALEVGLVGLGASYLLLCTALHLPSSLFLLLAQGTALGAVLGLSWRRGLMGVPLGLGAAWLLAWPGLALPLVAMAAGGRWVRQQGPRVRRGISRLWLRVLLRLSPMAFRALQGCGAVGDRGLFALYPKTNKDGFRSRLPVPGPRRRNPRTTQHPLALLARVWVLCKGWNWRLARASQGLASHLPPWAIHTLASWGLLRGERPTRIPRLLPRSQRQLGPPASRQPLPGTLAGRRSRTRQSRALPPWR
In words: Inhibition of TAOK2 (unknown origin) after 60 mins by TR-FRET assay.

The target in test [10] is Wee1-like protein kinase (Homo sapiens, UniProt P30291). Kind of test: Inhibition of Wee1 (unknown origin) after 60 mins by TR-FRET assay.

For the compound `CC1(C)OCC(=O)Nc2cc(Nc3nc(NCC(F)(F)F)c4occc4n3)ccc21`, the IC50 in test [1] is greater than 10 µM; in [2], 4.05 µM; in [3], greater than 10 µM; in [4] it was greater than 10 µM; in test [5] it was greater than 10 µM; in [6], 0.201 µM. Further, the concentration for half-maximal inhibition (IC50) in [7] came out at 2.67 µM; in [8] it was 2.94 µM; in test [9], 8.52 µM; in test [10] it was 9.88 µM.
Regarding `FC(F)(F)CNc1nc(Nc2ccc(N3CCOCC3)c(Cl)c2)nc2ccoc12`, the half-inhibitory concentration (IC50) in [1] is greater than 10 µM; in [2], greater than 10 µM; in test [3] it was greater than 10 µM; in test [4], greater than 10 µM; in [5], greater than 10 µM; in test [6], 1.51 µM. The IC50 in [7] is 0.513 µM; in test [8], 1.57 µM; in test [9], greater than 10 µM; in [10] it was greater than 10 µM.
In the case of `FC(F)(F)CNc1nc(Nc2ccc3cn[nH]c3c2)nc2ccoc12`, the IC50 was 7.63 µM in test [1]; greater than 10 µM in test [2]; greater than 10 µM in test [3]; greater than 10 µM in [5]; 2.89 µM in test [7]; greater than 10 µM in [9]. The same compound yielded a 50% inhibitory concentration (IC50) in test [10] greater than 10 µM.
Take `Cc1n[nH]c2cc(Nc3nc(NC4CC4)c4occc4n3)ccc12`: the IC50 is greater than 10 µM in test [2]; greater than 10 µM in test [3]; 7.54 µM in test [4]; greater than 10 µM in test [5]; 5.96 µM in [6]; 2.75 µM in [7]. For the same compound, the IC50 is 6.24 µM in test [8], greater than 10 µM in test [9] and greater than 10 µM in [10].

Values taken from ChEMBL document CHEMBL4007384, “Synthesis and optimization of furano[3,2-d]pyrimidines as selective spleen tyrosine kinase (Syk) inhibitors” (Bioorg Med Chem Lett, 2016).
